Source: paper PMC4822253, “Inhibition of BMP and of TGFβ receptors downregulates expression of XIAP and TAK1 leading to lung cancer cell death” (Molecular Cancer, 2016)

Columns and labels:
[1] = system: H1299 cells; experiment: Western blot analysis of cells in culture; format: cell-based
Procedure: Total cellular protein was prepared using RIPA buffer containing a protease inhibitor cocktail and protein concentration was measured using the BCA assay as described. In brief, protein was analyzed by SDS-PAGE, transferred to nitrocellulose (Schleicher and Schuell, Keene, NH). After blocking, the blots were incubated overnight at 4 °C with the appropriate primary antibody in Tris-buffered saline with 1 % Tween (TBST) and 5 % BSA. Secondary antibodies were applied for 1 h at room temperature. Specific proteins were detected using the enhanced chemiluminescence system (Amersham, Arlington Heights, IL). The primary antibodies that were used were rabbit monoclonal anti-pSmad 1/5, rabbit monoclonal anti-pSmad2, rabbit monoclonal anti-Smad2, rabbit monoclonal anti-pTAK1, rabbit monoclonal XIAP, rabbit anti-monoclonal p-p65, rabbit monoclonal anti-activated caspase-3, rabbit polyclonal anti-BMPRII, and rabbit monoclonal anti-EGR-1 (Cell signaling Technology, Danvers MA), Rabbit monoclonal anti-TAK1 (Invitrogen, Grand Island NY), rabbit anti-actin, an affinity isolated antigen specific antibody (Sigma, Saint Louis, MO), rabbit monoclonal anti-Id1 and rabbit monoclonal anti-Id3 (Calbioreagents, San Mateo, CA), rabbit polyclonal anti-GAPDH (Sigma, St. Louis, MO) and rabbit polyclonal pMEK-1/2 (Cell Signaling, Danvers MA).

[2] = system: H1299 Id1-luc cells; experiment: Id1-promoter luciferase reporter assay; format: cell-based
Procedure: H1299 cells were stably transfected with the Id1-promoter luciferase reporter. Treated cells were lysed with 1X luciferase lysis buffer (Promega). Samples were added to luciferase assay substrate (Promega) and luminsescence measured by the TD-20/20 Luminometer (Turner Designs/Turner BioSystems, Sunnyvale, CA). Control samples included luciferase assay substrate alone and luciferase assay substrate plus 1X reporter lysis buffer.

[3] = target: Alk3/BMPR1A (Homo sapiens, UniProt P36894); set-up: purchased Reaction Biology Corporation (Malvern, PA); method as in PMID 23639540; conditions: reported literature; cited from earlier work
[4] = target: T1, Alk2/ACVRR1 (Homo sapiens, UniProt Q04771); set-up: purchased Reaction Biology Corporation (Malvern, PA); conditions: reported literature; read-out: IC50 Alk2/ACVRR1; cited from earlier work
T1 sequence (Q04771 21-509): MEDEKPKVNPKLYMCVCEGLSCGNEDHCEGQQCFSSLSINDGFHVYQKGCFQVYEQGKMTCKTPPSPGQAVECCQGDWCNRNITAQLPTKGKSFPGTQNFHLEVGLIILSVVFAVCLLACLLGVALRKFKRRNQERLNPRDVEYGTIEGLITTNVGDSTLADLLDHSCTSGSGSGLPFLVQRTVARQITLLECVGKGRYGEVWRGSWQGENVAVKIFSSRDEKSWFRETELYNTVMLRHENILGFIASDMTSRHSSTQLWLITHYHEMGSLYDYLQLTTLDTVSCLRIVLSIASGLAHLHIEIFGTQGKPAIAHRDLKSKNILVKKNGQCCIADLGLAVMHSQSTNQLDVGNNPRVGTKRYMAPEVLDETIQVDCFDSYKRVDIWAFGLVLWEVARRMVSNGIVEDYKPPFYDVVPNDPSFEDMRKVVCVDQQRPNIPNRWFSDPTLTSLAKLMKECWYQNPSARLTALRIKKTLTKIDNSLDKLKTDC

[5] = target: T2, Alk5/TGFbetaR1 (Homo sapiens, UniProt P36897); conditions: cited from earlier work
T2 construct: purchased Reaction Biology Corporation (Malvern, PA)
T2 sequence (P36897 34-503): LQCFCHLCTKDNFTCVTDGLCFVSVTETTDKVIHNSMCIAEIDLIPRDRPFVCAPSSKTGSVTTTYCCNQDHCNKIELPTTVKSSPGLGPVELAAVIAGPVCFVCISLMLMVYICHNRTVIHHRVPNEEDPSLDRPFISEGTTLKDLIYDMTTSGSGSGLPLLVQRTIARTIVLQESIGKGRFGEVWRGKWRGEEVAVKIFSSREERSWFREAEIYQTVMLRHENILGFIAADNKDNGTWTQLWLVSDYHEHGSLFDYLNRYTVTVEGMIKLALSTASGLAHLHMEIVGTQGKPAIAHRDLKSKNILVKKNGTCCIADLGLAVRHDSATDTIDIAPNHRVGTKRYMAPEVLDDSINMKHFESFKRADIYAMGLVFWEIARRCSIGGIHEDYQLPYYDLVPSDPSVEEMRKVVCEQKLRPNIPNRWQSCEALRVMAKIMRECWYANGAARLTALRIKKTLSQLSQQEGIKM

[6] = system: H1299 cells; experiment: Cell death assay (ethidium bromide uptake); format: cell-based; conditions: H1299 cells; after 3 days
Procedure: Cells were plated in 6 well plates with 10^6 cells per well. Three days following treatment with inhibitor(s) and/or transfection the adherent and floating cells were harvested and incubated with 0.1 mg/ml of ethidium bromide. Cells that die by necrosis or apoptosis lose membrane integrity and take up ethidium bromide. Immediately after staining approximately 100 cells were counted and the percentage of cells that took up ethidium bromide was determined.

[7] = target: T3, BMPRII (Homo sapiens, UniProt Q13873); set-up: method as in PMID 23639540; conditions: reported literature (Table 1); cited from earlier work
T3 construct: purchased Reaction Biology Corporation (Malvern, PA)
T3 sequence (Q13873 27-1038): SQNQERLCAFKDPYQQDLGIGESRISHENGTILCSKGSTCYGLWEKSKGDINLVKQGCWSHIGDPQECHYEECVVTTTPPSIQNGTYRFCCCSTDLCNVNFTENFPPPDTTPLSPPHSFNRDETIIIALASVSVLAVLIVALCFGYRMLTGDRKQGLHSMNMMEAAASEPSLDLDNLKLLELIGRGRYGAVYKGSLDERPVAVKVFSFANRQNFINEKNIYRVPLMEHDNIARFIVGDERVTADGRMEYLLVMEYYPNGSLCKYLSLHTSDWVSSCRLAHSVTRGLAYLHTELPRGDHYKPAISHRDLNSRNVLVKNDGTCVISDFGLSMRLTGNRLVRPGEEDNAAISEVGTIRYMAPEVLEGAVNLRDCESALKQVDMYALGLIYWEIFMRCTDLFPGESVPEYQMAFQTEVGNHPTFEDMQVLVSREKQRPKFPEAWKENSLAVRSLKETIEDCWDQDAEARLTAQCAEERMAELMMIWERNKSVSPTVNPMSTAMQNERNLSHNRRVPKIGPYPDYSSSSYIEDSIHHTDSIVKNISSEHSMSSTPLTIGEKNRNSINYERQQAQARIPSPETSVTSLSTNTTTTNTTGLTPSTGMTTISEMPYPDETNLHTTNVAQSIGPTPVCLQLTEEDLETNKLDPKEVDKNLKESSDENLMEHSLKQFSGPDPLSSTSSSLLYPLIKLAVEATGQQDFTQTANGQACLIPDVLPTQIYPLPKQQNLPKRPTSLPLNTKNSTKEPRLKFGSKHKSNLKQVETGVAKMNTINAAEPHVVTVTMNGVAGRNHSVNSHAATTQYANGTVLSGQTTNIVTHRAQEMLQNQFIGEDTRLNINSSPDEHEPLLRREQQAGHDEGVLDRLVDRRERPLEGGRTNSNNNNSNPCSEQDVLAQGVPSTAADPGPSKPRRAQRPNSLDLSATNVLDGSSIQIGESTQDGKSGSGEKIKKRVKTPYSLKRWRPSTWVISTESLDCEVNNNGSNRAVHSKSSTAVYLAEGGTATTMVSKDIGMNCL

[8] = system: H1299 cells; experiment: Cell counts (live cells, trypan blue); format: cell-based; conditions: compound alone, 7 days
Procedure: (§1) Cells were plated into 6 well plates at 10^5 cells per well and treated with 1 μM DMSO or antagonist for 7 days. The cells were detached with trypsin, stained with trypan blue, and the number of live cells counted using a hemocytometer.

[9] = system: A549 cells; experiment: Cell counts (live cells, trypan blue); format: cell-based; conditions: compound alone, 7 days
Procedure: as §1

Alk3/BMPR1A, sequence (P36894 24-532): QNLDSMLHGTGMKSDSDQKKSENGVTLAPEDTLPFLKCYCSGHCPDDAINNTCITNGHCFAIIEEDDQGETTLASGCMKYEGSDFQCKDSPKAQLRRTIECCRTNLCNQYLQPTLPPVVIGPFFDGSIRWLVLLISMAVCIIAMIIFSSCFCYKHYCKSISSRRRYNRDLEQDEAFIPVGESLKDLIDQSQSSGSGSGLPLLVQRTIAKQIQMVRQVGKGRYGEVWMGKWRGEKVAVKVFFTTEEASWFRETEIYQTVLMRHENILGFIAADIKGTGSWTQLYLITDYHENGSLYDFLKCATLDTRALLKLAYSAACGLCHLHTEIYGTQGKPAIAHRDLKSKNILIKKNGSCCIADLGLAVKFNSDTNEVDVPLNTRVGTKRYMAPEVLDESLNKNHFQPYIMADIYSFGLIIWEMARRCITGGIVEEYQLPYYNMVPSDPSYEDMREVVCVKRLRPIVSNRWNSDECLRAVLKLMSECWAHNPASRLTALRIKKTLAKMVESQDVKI

## COc1cc(O)c2c(c1)/C=C/C[C@H](O)[C@H](O)C(=O)/C=C\C[C@H](C)OC2=O [5Z, 5Z-7-oxozeaenol]
[1]; H1299 cells, after 24 h
  expression of pSmad 1/5, Id1, and pTAK1: dose-related decrease
[1]; H1299 cells, after 48 h
  expression of Id1, pSmad 1/5, and pTAK1: increasing
[2]; 2 μM, after 24 h
  Id1 promoter activity: suppressed
[2]; after 48 h
  Id1 promoter activity: no longer suppressed

## CC(C)Oc1ccc(-c2cnc3c(-c4ccnc5ccccc45)cnn3c2)cc1 [DMH1]
[1]; H1299 cells, 3 days
  expression of Smad2: did not show significant regulation
[1]; H1299 cells, after 3 days (cell line not stated for DMH1 and LDN)
  expression of XIAP: did not downregulate
[1]; H1299 cells, after 3 days, alone or in combination with SB
  activation of caspase-3: did not activate
[1]; in vitro 48 h, cell line not stated in legend
  activation of Smad2 and TAK1: activation
[3]
  IC50: 5 nM
[4]
  IC50: 108 nM
[5]
  activity for TGFβ receptors: no activity
[6]
  cell death: little cell death
[7]
  inhibition of BMPRII: does not occur

## O=C(NOC[C@H](O)CO)c1ccc(F)c(F)c1Nc1ccc(I)cc1F [PD0325901]
[2]; 48 h
  promoter activity of Id1 (Id-1 luciferase reporter): did not regulate

## Cc1cccc(-c2[nH]c(C(C)(C)C)nc2-c2ccc3c(c2)OCO3)n1 [SB]
[1]; H1299 cells, compound alone, increasing doses
  expression of Id1: dose-related increase
[2]; compound alone
  Id1 promoter activity: increase
[8]
  growth (cell counts): little effect
[9]
  growth (cell counts): growth suppression
